Results on two compounds are retold here after PMC10397204, “Revealing protonation states and tracking substrate in serine hydroxymethyltransferase with room-temperature X-ray and neutron crystallography” (Communications Chemistry, 2023).

Experiment [1] deals with T1, TthSHMT (Thermus thermophilus, UniProt Q5SI56).
T1 construct: gene glyA; recombinant in E. coli BL21(DE3), codon-optimized glyA, N-terminal His6-tag with linker removed by TEV, starts at Ser3; homodimer, active site formed by residues of both protomers
T1 sequence (Q5SI56 3-407): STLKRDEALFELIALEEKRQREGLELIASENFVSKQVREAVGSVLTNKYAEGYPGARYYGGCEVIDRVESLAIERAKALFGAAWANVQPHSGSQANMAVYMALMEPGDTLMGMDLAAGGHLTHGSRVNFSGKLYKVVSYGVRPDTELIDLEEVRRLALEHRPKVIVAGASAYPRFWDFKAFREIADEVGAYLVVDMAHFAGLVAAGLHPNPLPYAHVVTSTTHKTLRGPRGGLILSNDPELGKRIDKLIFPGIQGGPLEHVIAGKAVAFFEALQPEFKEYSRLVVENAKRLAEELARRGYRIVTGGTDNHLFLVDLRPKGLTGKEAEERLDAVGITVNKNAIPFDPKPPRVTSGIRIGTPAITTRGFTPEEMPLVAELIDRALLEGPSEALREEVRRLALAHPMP
The experiment can be described thus: joint room-temperature X-ray/neutron crystallography, crystal soak. The following applies: pH 5.5, 500 mM; D2O H/D exchange; labelled compound; noncovalent pre-Michaelis complex in peripheral site, protomer A, sulfate in substrate site. The format is binding.

Experiment [2] addresses T1, TthSHMT. Kind of experiment: joint room-temperature X-ray/neutron crystallography. The format is binding. The following applies: pH 5.5; covalent; Schiff base with Lys226 (internal aldimine).

`N[C@@H](CO)C(=O)O` [L-Ser-d7]: the “joint room-temperature X-ray/neutron crystallography, crystal soak” value at TthSHMT [1] was “we observed L-Ser-d7 bound in a pocket on the periphery of the active site”. Turning to `Cc1ncc(COP(=O)(O)O)c(C=O)c1O` [PLP], the “joint room-temperature X-ray/neutron crystallography” value on TthSHMT [2] is reported as “In TthSHMT, PLP is covalently bound to Lys226 (Lys280 in hSHMT2) through a Schiff base”.
